These results are taken from patent US9540647B2, “Methods and compositions for the treatment of cancer” (University of South Alabama, priority 2010, dated 2017).

“Also recorded” adds a separate entry of the source.

Assay [1] relates to c-jun. Briefly: c-jun and c-fos protein expression and c-jun phosphorylation in A2780-CP70 cells (Western blot). The class given is cell-based, human. The settings on record: cyclopamine. The procedure: c-jun protein expression was assessed in cisplatin-treated A2780-CP70 cells using Western blot analysis.
Protein expression of c-fos and phosphorylation of c-jun in cyclopamine-treated A2780-CP70 cells was assessed using Western blot analysis. Protein levels for c-jun, c-fos, phosphorylated c-jun (Ser 63), phosphorylated c-jun (Ser 73), and phosphorylated c-jun (Thr 91, Thr 93) were tested in cytosolic, nuclear, and whole cell fractions at 0 hr, 6 hr, 24 hr, 48 hr, and 72 hr. Internal controls for cytosolic and nuclear fractions included α-tubulin and histone deacetylase 3.
Phosphorylation of c-jun in A2780-CP70 cells transfected with anti-GLI1 shRNA construct was assessed using Western blot analysis. Protein levels for c-jun, phosphorylated c-jun (Ser 63), phosphorylated c-jun (Ser 73), and phosphorylated c-jun (Thr 91, Thr 93) were examined at 0 hr, 6 hr, 24 hr, 48 hr, and 72 hr.

Assay [2] relates to pancreatic cancer. The settings on record: blockade of Hedgehog signaling, inhibiting EMT; cited from earlier work.
Assay [3] has as its system OPN promoter. Briefly: OPN promoter reporter activity in MC3T3-E1 pre-osteoblastic cells. The class given is cell-based, murine. Here is the method: (§1) Empty pGL3 vector was used as control. […] Readings were normalized to total protein content. Each parameter was studied in triplicate and the experiment repeated at least 3 times. The data are represented as percent luciferase activity, which was derived as a percent of the relative light units in treated groups compared with the untreated groups.
(§2) Empty pGL3 vector was used as control. Different concentrations of SHH ligand were added to the well the next day. Cells were lysed in Reporter Lysis buffer (Promega) 24 hrs post addition of SHH and both β-galactosidase assay and luciferase assays were done following manufacturer's protocol. Readings were normalized to β-galactosidase. Each parameter was studied in triplicate and the experiment repeated at least 3 times.

For assay [4], the system named is MC3T3-E1 pre-osteoblast cells. Briefly: Osteoblast differentiation and mineralization (ALP, Alizarin Red S, BSP, osteocalcin). In kind it is cell-based, murine. The procedure: The procedure for differentiation of osteoblasts was standardized. MC3T3-E1 cells were cultured in the presence of ascorbic acid and β-glycerophosphate. Mineralization was examined by Alizarin RedS staining (Ueno, A., et al. (2001). Matrix Biol 20, 347-355; Lee, Y. K., et al. (2004). J Biomed Mater Res A 69, 188-195; Duarte, W. R., et al. (2003). S100A4: a novel negative regulator of mineralization and osteoblast differentiation. J Bone Miner Res 18, 493-501). Referring to FIG. 13 and FIG. 14, differentiation was evident by intense red staining in presence of differentiation medium and in differentiation medium containing SHH compared to the control, growth medium. This was also evident in the intensity of absorbance and in the numbers of mineralized nodules formed (counted under the microscope) (FIG. 15).
Induction of osteoblastic and osteoclastic differentiation—In order to test the effect of conditioned medium from the tumor cells on osteoblast differentiation, a double-strength differentiation medium (DM) was formulated for MC3T3 E1 Sc-14 cells. It comprised αMEM, 20% FBS, 50 μg/ml ascorbic acid and 20 mM β-glycerophosphate. Conditioned media and the double-strength DM were mixed in a 1:1 ratio. 1×DM was used as control. Similarly a double-strength differentiation medium was formulated for RAW 264.7 cell lines. It consisted of 20% FBS, 50 ng/ml of RANKL and 20 ng/ml of M-CSF added to the growth medium. Conditioned media from the tumor cells was mixed 1:1 with the double-strength DM. 1×DM was used as control. Osteoblast differentiation was assessed by alkaline phosphatase (ALP) activity assay in the perspective of total phosphatase. The functional assessment of osteoblast mineralization was quantified by staining with Alizarin Red S and scoring the number of mineralized nodules.
Quantitative RT-PCR (qRT-PCR)—cDNA was generated using High Capacity Reverse Transcriptase Kit (Applied Biosystems, Foster City, Calif.). Real time PCR was performed using a BioRad iQ5 Real-Time Detection system (Bio-Rad, Hercules, Calif.). All reactions were done in triplicate. OPN transcript levels were normalized to GAPDH levels (dCT) which was used to calculate changes in OPN expression (2-ddCT). […] The primers used included Sppl (OPN) (Mm 00436767_m1); Bglap (osteocalcin) (Mm 01741771_g1); IBSP (Mm 00492555_m1); PTHrP (Mm 00433057_m1); RANKL (Mm 00441906_m1); GAPDH (Mm 99999915_g1).

Assay [5] deals with OPN promoter. Briefly: OPN promoter reporter activity in hFOB cells. In kind it is cell-based, human. The procedure:
as §1, §2

The subject of assay [6] is OPN promoter. The assay is described as follows: OPN promoter luciferase reporter assay in metastatic melanoma cell lines. In kind it is cell-based, human.
Excerpt: as §1

With `CC1=C2C[C@H]3[C@@H](CC=C4C[C@@H](O)CC[C@@]43C)[C@@H]2CC[C@]12O[C@@H]1C[C@H](C)CN[C@H]1[C@H]2C` [cyclopamine], in assay [1], the c-fos protein levels entry was “increased substantially at 6 hr”; the “phosphorylated c-jun (Ser 73)” value is “gradual increase in levels at 24 hour, 48 hr, and 72 hr”; the “phosphorylated c-jun (Thr 91, Thr 93)” value is “peak levels at 6 hr”. In addition, in assay [1] (0-72 hr), the “expression of c-jun protein in nuclear fractions” value is given as “peaked at 48 hr” and the “phosphorylated c-jun (Ser 63)” value is listed as “no substantial expression was detected over 72 hr”. Moreover, the c-jun protein levels entry in assay [1] (cytosolic and nuclear fractions) was “increased in cytosolic and nuclear fractions at 48 hr and 72 hr”. The “pancreatic cancer invasion and metastasis” value in assay [2] was “suppressed pancreatic cancer invasion and metastasis”.

For “SHH: recombinant Sonic Hedgehog ligand (R & D Systems)”, the OPN promoter activity entry is “activate OPN promoter; also recorded: upregulation in OPN promoter activity” in assay [3]; “activates the OPN promoter; also recorded: upregulation in OPN promoter activity” in assay [5]; “significant increase” in assay [6] (MCC012A cells, Hedgehog ligand treatment); “significant increase” in assay [6] (MCC012F cells, Hedgehog ligand treatment); “significantly (p<0.0001) higher” in assay [6] (MDA-MB-435 cells, increasing concentrations of ligand vs untreated control). For the same compound, in assay [4] (DM supplemented with 100 nM recombinant ligand vs DM alone), the “alkaline phosphatase (ALP) activity, osteoblast differentiation” value is “promotes differentiation; also recorded: significantly greater”. The “mineralized nodules / Alizarin Red staining” value in assay [4] (DM with recombinant ligand vs DM alone, 14 days) is recorded as “promote differentiation; also recorded: significantly greater number of mineralized nodules”. Moreover, in assay [4] (in presence of SHH, 14 days), the “expression of BSP” value was “significantly elevated”. Further, the expression of osteocalcin entry in assay [4] (in presence of SHH, 14 days) was “significantly elevated”.
